Assay results published in patent US6569865B2, “Spiro 1-azabicyclo[2.2.2]octane-3,2′(3′h)-furo[2,3-b]pyridine” (priority 2001, dated 2003).

Assays:
α7 nAChR = α7 nAChR (Rattus norvegicus, UniProt Q05941); experiment: Test A: 125I-α-bungarotoxin binding to rat hippocampal membranes (affinity at α7 nAChR subtype)
Experimental: Test A—Assay for Affinity at α7 nAChR Subtype
125I-α-Bungarotoxin (BTX) binding to rat hippocampal membranes. Rat hippocampi were homogenized in 20 volumes of cold homogenization buffer (HB: concentrations of constituents (mM): tris(hydroxymethyl)aminomethane 50; MgCl2 1; NaCl 120; KCl 5: pH 7.4). The homogenate was centrifuged for 5 minutes at 1000 g, the supernatant was saved and the pellet re-extracted. The pooled supernatants were centrifuged for 20 minutes at 12000 g, washed, and resuspended in HB. Membranes (30-80 μg) were incubated with 5 nM [^125I]α-BTX, 1 mg/mL BSA (bovine serum albumin), test drug, and either 2 mM CaCl2 or 0.5 mM EGTA [ethylene glycol-bis(β-aminoethylether)] for 2 hours at 21° C., and then filtered and washed 4 times over Whatman glass fibre filters (thickness C) using a Brandel cell harvester. […]
IC50 values and pseudo Hill coefficients (nH) were calculated using the non-linear curve-fitting program ALLFIT (DeLean A, Munson P J and Rodbard D (1977) Am. J. Physiol., 235:E97-E102). […]
where a value of n=1 was used whenever nH<1.5 and a value of n=2 was used when nH≧1.5. […] Ki values were determined using 6 or more drug concentrations. […]

α4 nAChR = α4 nAChR (Rattus norvegicus, UniProt P09483+P12390); assay type: binding
Experimental: Binding Data Analysis for Tests A and B
Ki values were determined using 6 or more drug concentrations.

Sequence of α7 nAChR (Q05941 23-502): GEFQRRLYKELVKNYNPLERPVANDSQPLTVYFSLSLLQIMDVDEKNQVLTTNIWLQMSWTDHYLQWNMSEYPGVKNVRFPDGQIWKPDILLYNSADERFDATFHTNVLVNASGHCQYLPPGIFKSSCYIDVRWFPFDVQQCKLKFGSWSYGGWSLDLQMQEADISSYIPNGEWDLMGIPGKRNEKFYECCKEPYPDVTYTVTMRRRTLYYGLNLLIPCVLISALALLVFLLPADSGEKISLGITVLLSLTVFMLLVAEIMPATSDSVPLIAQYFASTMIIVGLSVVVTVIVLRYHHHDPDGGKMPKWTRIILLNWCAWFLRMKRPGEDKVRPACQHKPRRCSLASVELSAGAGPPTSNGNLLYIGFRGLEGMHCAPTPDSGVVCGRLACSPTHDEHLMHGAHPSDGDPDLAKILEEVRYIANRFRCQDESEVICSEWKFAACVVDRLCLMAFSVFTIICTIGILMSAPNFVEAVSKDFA
Sequence of α4 nAChR (P09483 31-630): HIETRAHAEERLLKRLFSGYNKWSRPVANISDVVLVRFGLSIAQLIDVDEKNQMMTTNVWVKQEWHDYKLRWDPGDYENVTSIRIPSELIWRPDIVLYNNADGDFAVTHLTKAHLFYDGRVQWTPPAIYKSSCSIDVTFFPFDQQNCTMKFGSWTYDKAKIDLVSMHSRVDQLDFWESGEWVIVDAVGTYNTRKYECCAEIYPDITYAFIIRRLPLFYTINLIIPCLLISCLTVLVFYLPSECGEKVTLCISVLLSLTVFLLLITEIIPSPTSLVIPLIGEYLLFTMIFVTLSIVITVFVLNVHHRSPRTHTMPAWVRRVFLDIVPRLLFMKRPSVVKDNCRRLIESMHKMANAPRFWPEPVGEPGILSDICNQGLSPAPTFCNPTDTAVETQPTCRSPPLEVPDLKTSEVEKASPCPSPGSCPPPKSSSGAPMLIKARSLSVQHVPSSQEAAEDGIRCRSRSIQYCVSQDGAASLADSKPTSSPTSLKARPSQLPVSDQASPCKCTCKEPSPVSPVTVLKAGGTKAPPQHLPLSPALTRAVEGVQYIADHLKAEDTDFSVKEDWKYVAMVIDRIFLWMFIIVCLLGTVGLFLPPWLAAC
Sequence of α4 nAChR (P12390 25-500): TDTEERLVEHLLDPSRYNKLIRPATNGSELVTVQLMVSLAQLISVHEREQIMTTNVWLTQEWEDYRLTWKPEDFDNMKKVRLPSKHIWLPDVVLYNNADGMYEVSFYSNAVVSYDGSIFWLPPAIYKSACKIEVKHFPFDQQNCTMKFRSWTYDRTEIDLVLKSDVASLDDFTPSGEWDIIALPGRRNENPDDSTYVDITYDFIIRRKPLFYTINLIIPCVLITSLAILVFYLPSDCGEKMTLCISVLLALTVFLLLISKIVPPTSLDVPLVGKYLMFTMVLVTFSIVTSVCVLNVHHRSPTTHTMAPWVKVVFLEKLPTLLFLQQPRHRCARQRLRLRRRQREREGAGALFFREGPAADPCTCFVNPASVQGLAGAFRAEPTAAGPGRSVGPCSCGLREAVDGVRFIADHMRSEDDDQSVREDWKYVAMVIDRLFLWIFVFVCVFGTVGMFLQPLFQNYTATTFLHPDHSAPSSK

Compound	Kd (α7 nAChR; read-out: KD of radioligand from saturation curves (one site model))	Ki (α7 nAChR; 125I-α-BTX displacement, rat hippocampal membranes)	nAChR Binding Selectivity (Ratio α4 Ki/α7 Ki) (α4 nAChR)
125I-α-Bungarotoxin [Compound 125I-α-BTX, reference compound]	1.67 nM		
c1cc(-c2cnc3c(c2)C[C@@]2(CN4CCC2CC4)O3)co1 [Compound 3, (2′R)-5′-(3-furanyl)spiro[1-azabicyclo[2.2.2]octane-3,2′(3′H)-furo[2,3-b]pyridine]]		0.033 nM	88000
